Assay results: patent US12516356B2, “Process for the detoxification of lignocellulosic hydrolysate and its use in synthesizing xylitol” (COUNCIL OF SCIENTIFIC AND INDUSTRIAL RESEARCH, priority 2020, dated 2026)

System: HepG2 cell lines
Assay: cytotoxicity studies on HepG2 cell lines
Format: cell-based
Conditions: xylitol crystals recovered from fermentation broth

Structure (SMILES): OC[C@@H](O)[C@H](O)[C@@H](O)CO [Xylitol crystals, xylitol]
- toxic effect on HepG2 cell lines (cytotoxicity studies): no toxic effect
